Here are results for 11 compounds from PMC11263391, “Molecular insights into degron recognition by CRL5^ASB7 ubiquitin ligase” (Nature Communications, 2024).

For orientation: Kd means the equilibrium constant for the complex coming apart.

Read-outs that look alike come from different tables or passages of the source. Residues, ends and D or L forms follow the SMILES beside them.

The assay has as its target T1, ASB7-Elongin B/C (Homo sapiens, UniProt Q9H672).
T1 construct: The human ASB7 (residues 11–318) was amplified via PCR; His8-SUMO (pET28-MKH8SUMO) (N, cleaved yes); made in house; host or cells: Escherichia coli BL21 (DE3)
Put plainly: ITC of degron peptides with wild-type ASB7-Elongin B/C. In kind it is binding. The following applies: for ASB7 binding ability of substituted peptide, in words: wild-type ASB7, compared with native LZTS1-degron; for -T∆S / ∆G / ∆H: wild-type ASB7-Elongin B/C; for ∆H: mean ± SD of three repeats. The method, then: The human ASB7 (residues 11-318) was amplified via PCR from a human cDNA library and seamlessly cloned into the pET28-MKH8SUMO vector (Addgene plasmid #79526). […] ITC assays were performed using a MicroCal PEAQ-ITC instrument (Malvern Panalytical) at 16 °C. […] All protein and peptide stocks were prepared in an ITC buffer (20 mM Tris-HCl pH 7.5, and 150 mM NaCl) and subsequently diluted to the desired concentrations (39-156 μM for ASB7 protein and 0.8-4 mM for the peptides, respectively). In each experiment, 1.5 μL of peptide was titrated into the ASB7 complex solution with 15 injections. The injections were spaced at 90 seconds with a reference power of 15 μcal/s. The ITC data were processed using MicroCal PEAQ-ITC Analysis software.

Where [1] appears, read: ITC, MicroCal PEAQ-ITC, 16 °C, 20 mM Tris-HCl pH 7.5, 150 mM NaCl, peptide (0.8–4 mM) titrated into wild-type ASB7-Elongin B/C (39–156 μM), 15 injections, mean ± SD of three independent repeats, read-out: KD.
[2] abbreviates: ITC, 16 °C, 20 mM Tris-HCl pH 7.5, 150 mM NaCl.

T1 sequence (Q9H672 11-318): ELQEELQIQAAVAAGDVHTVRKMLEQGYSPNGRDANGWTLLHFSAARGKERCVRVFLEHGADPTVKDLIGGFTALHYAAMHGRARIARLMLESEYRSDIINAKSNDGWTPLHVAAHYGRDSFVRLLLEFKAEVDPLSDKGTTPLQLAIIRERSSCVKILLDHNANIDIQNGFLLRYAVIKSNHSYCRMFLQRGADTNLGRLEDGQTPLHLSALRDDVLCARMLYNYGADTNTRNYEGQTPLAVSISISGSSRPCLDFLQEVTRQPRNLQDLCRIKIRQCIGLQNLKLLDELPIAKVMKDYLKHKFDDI
T1 sequence (Q15370 1-104 partner limits assumed): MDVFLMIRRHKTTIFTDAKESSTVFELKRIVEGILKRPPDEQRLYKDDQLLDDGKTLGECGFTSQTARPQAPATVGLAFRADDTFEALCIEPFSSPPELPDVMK
T1 sequence (Q15369 17-112 partner limits assumed): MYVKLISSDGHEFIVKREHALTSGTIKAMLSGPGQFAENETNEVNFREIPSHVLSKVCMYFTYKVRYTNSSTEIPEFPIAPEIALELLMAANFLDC

As to `CSCC[C@H](NC(=O)[C@H](CCCNC(=N)N)NC(=O)[C@H](CO)NC(=O)[C@H](CCC(=O)O)NC(=O)[C@H](CC(C)C)NC(=O)[C@H](CCC(=O)O)NC(=O)[C@H](CCC(N)=O)NC(=O)[C@@H](N)CCCNC(=N)N)C(=O)N[C@@H](CCCCN)C(=O)N[C@@H](CCC(=O)O)C(=O)N[C@@H](CCC(N)=O)C(=O)N[C@@H](CC(=O)O)C(=O)N[C@@H](CC(C)C)C(=O)N[C@@H](CC(C)C)C(=O)N[C@@H](CCC(=O)O)C(=O)N[C@H](C(=O)N[C@@H](CCCCN)C(=O)N[C@@H](CC(C)C)C(=O)N[C@@H](CCCNC(=N)N)C(=O)N[C@@H](CO)C(=O)N[C@@H](Cc1ccc(O)cc1)C(=O)N[C@@H](CCC(=O)O)C(=O)N[C@@H](CCCNC(=N)N)C(=O)O)[C@@H](C)O` [L5R] (H-RQELESRMKEQDLLETKLRSYER-OH; N-terminus and C-terminus assumed), the dissociation constant Kd under setting [1] is more than 30 µM. Under “ITC”, the “ASB7 binding ability of substituted peptide, in words” value (“ASB7 binding ability” below) was “almost complete loss”. On the same counts, the results for `CSCC[C@H](NC(=O)[C@H](CC(C)C)NC(=O)[C@H](CO)NC(=O)[C@H](CCC(=O)O)NC(=O)[C@H](CC(C)C)NC(=O)[C@H](CCC(=O)O)NC(=O)[C@H](CCC(N)=O)NC(=O)[C@@H](N)CCCNC(=N)N)C(=O)N[C@@H](CCCCN)C(=O)N[C@@H](CCC(=O)O)C(=O)N[C@@H](CCC(N)=O)C(=O)N[C@@H](CC(=O)O)C(=O)N[C@@H](CC(C)C)C(=O)N[C@@H](CC(C)C)C(=O)N[C@@H](CCC(=O)O)C(=O)N[C@H](C(=O)N[C@@H](CCCCN)C(=O)N[C@@H](CCCNC(=N)N)C(=O)N[C@@H](CCCNC(=N)N)C(=O)N[C@@H](CO)C(=O)N[C@@H](Cc1ccc(O)cc1)C(=O)N[C@@H](CCC(=O)O)C(=O)N[C@@H](CCCNC(=N)N)C(=O)O)[C@@H](C)O` [L16R] (H-RQELESLMKEQDLLETKRRSYER-OH; N-terminus and C-terminus assumed) are more than 30 µM and “almost complete loss”.

As for “ELEKAKQECQDLKGKLEKCCRH [CEP152-degron, synthetic degron peptide derived from CEP152]”, under setting [2], the “-T∆S” value is -4.79 kcal/mol, the “∆G” value is -6.59 kcal/mol and the “∆H” value is -1.8 ± 0.09 kcal/mol. Moreover, the Kd under setting [1] was found to be 3.8 µM. Consider `CSCC[C@H](NC(=O)[C@H](CC(C)C)NC(=O)[C@H](CO)NC(=O)[C@H](CCC(=O)O)NC(=O)[C@H](CC(C)C)NC(=O)[C@@H](N)CCC(=O)O)C(=O)N[C@@H](CCCCN)C(=O)N[C@@H](CCC(=O)O)C(=O)N[C@@H](CCC(N)=O)C(=O)N[C@@H](CC(=O)O)C(=O)N[C@@H](CC(C)C)C(=O)N[C@@H](CC(C)C)C(=O)N[C@@H](CCC(=O)O)C(=O)N[C@H](C(=O)N[C@@H](CCCCN)C(=O)N[C@@H](CC(C)C)C(=O)N[C@@H](CCCNC(=N)N)C(=O)N[C@@H](CO)C(=O)N[C@@H](Cc1ccc(O)cc1)C(=O)N[C@@H](CCC(=O)O)C(=O)N[C@@H](CCCNC(=N)N)C(=O)O)[C@@H](C)O` (H-ELESLMKEQDLLETKLRSYER-OH), for which the Kd under setting [1] is 0.7 ± 0.31 µM. As to `CSCC[C@H](NC(=O)[C@H](CC(C)C)NC(=O)[C@H](CO)NC(=O)[C@H](CCC(=O)O)NC(=O)[C@H](CC(C)C)NC(=O)[C@H](CCC(=O)O)NC(=O)[C@H](CCC(N)=O)NC(=O)[C@@H](N)CCCNC(=N)N)C(=O)N[C@@H](CCCCN)C(=O)N[C@@H](CCC(=O)O)C(=O)N[C@@H](CCC(N)=O)C(=O)N[C@@H](CC(=O)O)C(=O)N[C@@H](CC(C)C)C(=O)N[C@@H](CC(C)C)C(=O)N[C@@H](CCC(=O)O)C(=O)N[C@H](C(=O)N[C@@H](CCCCN)C(=O)N[C@@H](CC(C)C)C(=O)N[C@@H](CCCNC(=N)N)C(=O)N[C@@H](CO)C(=O)N[C@@H](CCCNC(=N)N)C(=O)N[C@@H](CCC(=O)O)C(=O)N[C@@H](CCCNC(=N)N)C(=O)O)[C@@H](C)O` [Y19R] (H-RQELESLMKEQDLLETKLRSRER-OH), the Kd under setting [1] was 0.7 ± 0.05 µM. On to `CSCC[C@H](NC(=O)[C@H](CC(C)C)NC(=O)[C@H](CO)NC(=O)[C@H](CCC(=O)O)NC(=O)[C@H](CC(C)C)NC(=O)[C@@H](N)CCC(=O)O)C(=O)N[C@@H](CCCCN)C(=O)N[C@@H](CCC(=O)O)C(=O)N[C@@H](CCC(N)=O)C(=O)N[C@@H](CC(=O)O)C(=O)N[C@@H](CC(C)C)C(=O)N[C@@H](CC(C)C)C(=O)N[C@@H](CCC(=O)O)C(=O)O` (H-ELESLMKEQDLLE-OH; N-terminus and C-terminus assumed), for which, under setting [1], the equilibrium dissociation constant (Kd) was more than 30 µM. For the compound `CSCC[C@H](NC(=O)[C@H](CC(C)C)NC(=O)[C@H](CO)NC(=O)[C@H](CCC(=O)O)NC(=O)[C@H](CC(C)C)NC(=O)[C@H](CCC(=O)O)NC(=O)[C@H](CCC(N)=O)NC(=O)[C@@H](N)CCCNC(=N)N)C(=O)N[C@@H](CCCCN)C(=O)N[C@@H](CCC(=O)O)C(=O)N[C@@H](CCC(N)=O)C(=O)N[C@@H](CC(=O)O)C(=O)N[C@@H](CC(C)C)C(=O)N[C@@H](CCCNC(=N)N)C(=O)N[C@@H](CCC(=O)O)C(=O)N[C@H](C(=O)N[C@@H](CCCCN)C(=O)N[C@@H](CC(C)C)C(=O)N[C@@H](CCCNC(=N)N)C(=O)N[C@@H](CO)C(=O)N[C@@H](Cc1ccc(O)cc1)C(=O)N[C@@H](CCC(=O)O)C(=O)N[C@@H](CCCNC(=N)N)C(=O)O)[C@@H](C)O` [L12R] (H-RQELESLMKEQDLRETKLRSYER-OH; N-terminus and C-terminus assumed), the Kd under setting [1] is more than 30 µM. For the same compound, under “ITC”, the “ASB7 binding ability” value was “almost complete loss”. In the case of `CSCC[C@H](NC(=O)[C@H](CC(C)C)NC(=O)[C@H](CO)NC(=O)[C@H](CCC(=O)O)NC(=O)[C@H](CC(C)C)NC(=O)[C@@H](N)CCC(=O)O)C(=O)N[C@@H](CCCCN)C(=O)N[C@@H](CCC(=O)O)C(=O)N[C@@H](CCC(N)=O)C(=O)O` (H-ELESLMKEQ-OH; N-terminus and C-terminus assumed), the equilibrium dissociation constant (Kd) under setting [1] was more than 30 µM. Consider `CSCC[C@H](NC(=O)[C@H](CC(C)C)NC(=O)[C@H](CO)NC(=O)[C@H](CCC(=O)O)NC(=O)[C@H](CC(C)C)NC(=O)[C@H](CCC(=O)O)NC(=O)[C@H](CCC(N)=O)NC(=O)[C@@H](N)CCCNC(=N)N)C(=O)N[C@@H](CCCCN)C(=O)N[C@@H](CCCNC(=N)N)C(=O)N[C@@H](CCC(N)=O)C(=O)N[C@@H](CC(=O)O)C(=O)N[C@@H](CC(C)C)C(=O)N[C@@H](CC(C)C)C(=O)N[C@@H](CCC(=O)O)C(=O)N[C@H](C(=O)N[C@@H](CCCCN)C(=O)N[C@@H](CC(C)C)C(=O)N[C@@H](CCCNC(=N)N)C(=O)N[C@@H](CO)C(=O)N[C@@H](Cc1ccc(O)cc1)C(=O)N[C@@H](CCC(=O)O)C(=O)N[C@@H](CCCNC(=N)N)C(=O)O)[C@@H](C)O` [E8R] (H-RQELESLMKRQDLLETKLRSYER-OH; N-terminus and C-terminus assumed), for which the Kd under setting [1] was more than 30 µM. The “ASB7 binding ability” value (ITC) was “almost complete loss”. `CSCC[C@H](NC(=O)[C@H](CC(C)C)NC(=O)[C@H](CO)NC(=O)[C@H](CCC(=O)O)NC(=O)[C@H](CC(C)C)NC(=O)[C@@H](N)CCC(=O)O)C(=O)O` [ELESLM] (H-ELESLM-OH): the Kd is more than 30 µM. For the compound “EIGELKAVMEGIKMEHQLELGN [CLIP2-degron, synthetic degron peptide derived from CLIP2]”, under setting [2], the “-T∆S” value turned out to be 2.57 kcal/mol, the “∆G” value is -8.23 kcal/mol and the “∆H” value is -10.8 ± 0.25 kcal/mol.
